Measured values: PMC6170196 (Clinical pharmacology and therapeutics, 2012)
Where two headings read alike, the source gives them in different places. Marks after values point to notes of the source that are not given here.

Format: in vivo, human
Settings: flurbiprofen 100 mg oral, n=12
[1] = arithmetic mean, Fluconazole/ placebo
[2] = arithmetic mean, Pom extract/ placebo
[3] = arithmetic mean, Pom juice/ placebo
[4] = geometric mean, Fluconazole/ placebo
[5] = geometric mean, Pom extract/ placebo
[6] = geometric mean, Pom juice/ placebo

For `CC(C(=O)O)c1ccc(-c2ccccc2)c(F)c1` (stereo not drawn) [FLURBIPROFEN, Flurbiprofen], the Cmax ratio [1] was 1.57 ^*, the “Total AUC ratio” value [1] was 2.04 ^* and the Cmax ratio [2] was 1.08. The “Total AUC ratio” value [2] was 1.09, the Cmax ratio [3] was 1.09 and the “Total AUC ratio” value [3] was 1.08. The Cmax ratio [4] was 1.47, the “Total AUC ratio” value [4] was 1.97 and the Cmax ratio [5] was 1.03. For the same molecule, the “Total AUC ratio” value [5] was 1.06, the Cmax ratio [6] was 1.03 and the “Total AUC ratio” value [6] was 1.05.
